Patent US9353096B2, “Substituted phenylcarbamate compounds” (Hoffmann-La Roche Inc., priority 2012, dated 2016)
pIC50: −log10 of the molar value. Counter-ions that a name gives are not always drawn.

Target: hTRPA1 (Homo sapiens, UniProt O75762)
Test: Dose response calcium flux (FLIPR) assay, ChanTest hTRPA1-CHO stably transfected cell line, cinnamaldehyde agonist
Assay type: cell-based
Conditions: CHO-K1 Tet-On hTRPA1 cells, 100 uM cinnamaldehyde agonist, 30 min preincubation
Procedure: Dose Response Assay:ChanTest hTRPA1-CHO Stably Transfected Cell Line
CHO-K1 Tet-On_HOMSA_TRPA1_Clone_20
Growth Media for CHO-K1 Tet-On_HOMSA_TRPA1_Clone_20 • Ham's F-12 with 10% tetracycline-free FBS • 1× penicillin-streptomycin • 1× glutamax • 0.01 mg/ml Blasticidin • 0.40 mg/ml Zeocin • The cell line doubling rate was ˜15 h. […] Experiments were run at 24 h post induction.
Plating Conditions CHOK1/TRPA1 Cells: • Harvested cells with 0.025% trypsin/EDTA. • Resuspended cells in growth media without selection antibiotics. • Measured cell density and diluted to 2.4×10^5 cells/ml in media containing 1 ug/ml Doxycycline Plate 25 ul/well into 384 well black/clear tissue culture-treated plates. • Incubated overnight at 37° C.
Replacement Buffer: Hank's Balanced Salt Solution, 20 mM HEPES along with 0.005% BSA and 2× Probenecid
Dye Loading Buffer: Cal-3 NW Calcium dye was prepared by dissolving the contents of one vial with […] Hank's Balanced Salt Solution containing 20 mM HEPES.
AP-18, stock 10 mM, prepare 3.5× compound dilution in a Compound Buffer (HBSS/20 mM HEPES/0.005% BSA)—final concentration 10 uM.
Preparation of Cinnamaldehyde (Agonist Addition): • FW=132.16 • Specific gravity=1.046 gm/cc • 1.32 gm/1.046 gm/cc=1.26 ml of stock • Add 1.74 ml DMSO=3.3 M stock • Working solution 4.5× (final 100 uM in Compound Buffer: HBSS/20 mM HEPES/0.005% BSA)
Compounds dilutions were prepared from 5 or 10 mM stock (100% DMSO): • Adjustments of volumes and concentrations were made at time of titration to reflect desired final assay concentrations. • Compounds were tested at either 20 μM three folds dilution 11 steps out or 30 μM two folds dilution 11 steps out. • 3 μl of diluted compound were transferred into Weidmann 384-well plate in duplicates side-by-side. • Compound plates were resuspended with 100 ul of HBSS/20 mM HEPES/0.005% BSA buffer (Compound Buffer): • column 1A-H: buffer/DMSO (bk) • column 2A-H: AP-18 (control antagonist for CHOK1 TRPA1 cells) • column 1I-P: ATP (control for CHOK1 teton cells) • column 2I-P: 2APB (control antagonist for CHOK1/TRPM8 cells).
Growth media was removed from the cell plates (20 ul) and 20 μl of the Replacement Buffer was added followed by addition of 25 μl of diluted dye. All three steps were performed using a Plate Washer BioTek 407. The plates were then incubated for 30′ at RT.
After incubation, both the cell and compound plates were brought to the FLIPR and 20 μl of the diluted compounds/antagonist/bk were transferred to the cell plates by the FLIPR. Plates were then incubated for 30′ at room temperature. After 30′ incubation, plates were returned to the FLIPR and 20 μl of 4.5× Cinnamaldehyde was added to the cell plates. During the compound addition as well as agonist addition, fluorescence readings were taken simultaneously from all 384 wells of the cell plate every 1.5 seconds. Five readings were taken to establish a stable baseline, then 20 μl of sample was rapidly (30 ul/sec) and simultaneously added to each well of the cell plate. The fluorescence was continuously monitored before, during and after sample/agonist addition for a total elapsed time of 100 seconds (compound addition) and 120 seconds (agonist addition). Responses (increase in peak fluorescence) in each well following agonist addition was determined. The initial fluorescence reading from each well, prior to ligand stimulation, was used a zero baseline value for the data from that well.

Sequence of hTRPA1 (O75762 whole entry): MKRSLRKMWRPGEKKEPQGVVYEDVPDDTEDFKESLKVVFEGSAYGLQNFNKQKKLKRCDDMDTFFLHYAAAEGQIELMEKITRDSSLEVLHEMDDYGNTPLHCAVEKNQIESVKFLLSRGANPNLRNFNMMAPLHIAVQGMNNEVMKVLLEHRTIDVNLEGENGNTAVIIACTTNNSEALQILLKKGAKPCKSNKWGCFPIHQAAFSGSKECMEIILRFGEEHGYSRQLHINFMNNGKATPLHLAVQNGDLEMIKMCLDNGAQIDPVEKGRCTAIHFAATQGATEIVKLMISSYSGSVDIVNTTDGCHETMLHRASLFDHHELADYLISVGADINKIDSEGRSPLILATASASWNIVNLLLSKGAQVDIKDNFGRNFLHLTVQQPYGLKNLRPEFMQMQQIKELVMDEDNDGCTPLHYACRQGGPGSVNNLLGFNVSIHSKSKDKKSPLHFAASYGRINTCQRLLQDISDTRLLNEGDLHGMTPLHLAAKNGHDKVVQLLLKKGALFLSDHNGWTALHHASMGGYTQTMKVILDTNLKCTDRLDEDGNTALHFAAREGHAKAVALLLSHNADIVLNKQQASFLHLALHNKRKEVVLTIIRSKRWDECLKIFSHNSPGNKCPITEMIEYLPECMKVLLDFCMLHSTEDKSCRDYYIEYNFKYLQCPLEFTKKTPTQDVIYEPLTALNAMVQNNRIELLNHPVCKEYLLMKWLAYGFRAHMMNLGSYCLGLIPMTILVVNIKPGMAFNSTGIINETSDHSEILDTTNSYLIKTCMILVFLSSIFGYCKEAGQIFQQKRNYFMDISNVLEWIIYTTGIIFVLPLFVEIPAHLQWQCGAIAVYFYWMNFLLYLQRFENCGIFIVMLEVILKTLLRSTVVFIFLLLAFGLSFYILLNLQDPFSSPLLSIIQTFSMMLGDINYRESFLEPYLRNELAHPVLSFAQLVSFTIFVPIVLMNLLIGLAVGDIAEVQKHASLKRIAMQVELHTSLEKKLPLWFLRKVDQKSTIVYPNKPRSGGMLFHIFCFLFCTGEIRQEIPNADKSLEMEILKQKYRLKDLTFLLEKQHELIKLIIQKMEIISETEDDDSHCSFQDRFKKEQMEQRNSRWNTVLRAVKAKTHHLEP

Compound | pIC50
O=C(Nc1ccc(Cl)cc1)O[C@@H](CN1CCS(=O)(=O)CC1)C(F)(F)F [Example 48, (4-Chlorophenyl)-carbamic acid (S)-1-(1,1-dioxo-1λ^6-thiomorpholin-4-ylmethyl)-2,2,2-trifluoroethyl ester hydrochloride] | 5.45
CC(C)c1nccc([C@H]2CN(C[C@H](OC(=O)Nc3ccc(Cl)c(F)c3)C(F)(F)F)CCO2)n1 (single isomer, unassigned) [Example 26, hydrochloride] | 6.07
O=C(Nc1ccc(Cl)c(F)c1)O[C@@H](CN1CCO[C@@H](c2ccc(F)c(F)c2)C1)C(F)(F)F (single isomer, unassigned) [Example 35, hydrochloride] | 6.71
O=C(Nc1ccc(Cl)c(F)c1)O[C@@H](CN1CCO[C@H](c2ccc(Cl)c(F)c2)C1)C(F)(F)F [Example 4, (4-Chloro-3-fluorophenyl)-carbamic acid (S)-1-[(R)-2-(4-chloro-3-fluorophenyl)-morpholin-4-ylmethyl]-2,2,2-trifluoroethyl ester hydrochloride] | 7.37
O=C(Nc1ccc(Cl)cc1)OC(CN1CCOCC1)C(F)(F)F (centres unmarked) [Example 41, (4-Chlorophenyl)-carbamic acid 2,2,2-trifluoro-1-morpholin-4-ylmethyl-ethyl ester] | 5.67
